Columns and labels:
[1] = tested on: Daudi human Burkitt Lymphoma derived tumors; test: Daudi lymphoma murine xenograft model, efficacy; format: in vivo, male SCID mice; details: for mean tumor volume at termination of the study: daily Monday to Friday for two weeks, control 1583 mm^3
Method: Male SCID mice, 6-8 weeks of age, obtained from Simonsen Laboratories, Inc. (Gilroy, Calif.) were housed in groups of five.
The Daudi human Burkitt Lymphoma cells were obtained from American Type Culture Collection and were inoculated subcutaneously (1.0×10^7 cells/mouse) on the flanks of SCID mice. After the tumors reached approximately 100 mm^3 treatment was initiated.
Body weights and tumor volume of all mice were measured and recorded twice weekly. Tumors were measured in three dimensions and volume calculated using the formula: […]. Time for the tumors (days) to grow to 4× and 8× the initial volume at dosing were assessed. Study compounds were administered at 125 or 250 mg/kg/day (M-F) via oral gavage until the end of the study.
The efficacy of chlorambucil (2 and 3 mg/kg/d), (R-etodoalc) (400 mg/kg/d) and compound 47 (250 mg/kg/d), compound 26 (250 mg/kg/d), and compound 1 (125 mg/kg/d) against Daudi derived tumors in male SCID mice were studied. R-etodolac and compounds 1, 26 and 47 were prepared in sesame oil. Both chlorambucil (ip, 0.1 ml) and compounds of the invention (per os [p.o.], 0.31 ml) were dosed daily (Monday to Friday) for two weeks. SDX-101 (0.31 ml) was dosed p.o. daily until the end of the study. […] However, all treated mice recovered after Day 2 and maintained their weights. There was no body weight loss observed in other treatment groups. At termination of the study, the control group mean tumor volume was 1583 mm^3. The mean tumor volume of chlorambucil treated groups were 864 and 766 mm^3 with 2 and 3 mg/kg/d chlorambucil treatment, respectively. The mean tumor volume of R-etodolac and compounds 1, […] and 47 were 802, 996, 1011, and 1157 mm^3 with compounds 47, 36, 1 and R-etodolac treatment, respectively. […] At termination of the study, tumor samples along with liver, kidney, and spleen samples from each group were collected and fixed in 10% buffered formalin for histopathology.

[2] = tested on: prostate cancer cell line (LNCaP); test: Cell cytotoxicity, MTT assay, LNCaP; format: cell-based; details: Homo sapiens, 72 h, three days incubation
Method: (§1) Normal prostate cells (PREC, Cambrex East Rutherford N.J.), prostate cancer cell line (LNCaP, ATCC), PBL (peripheral blood leukocytes-buffy coat San Diego Blood Bank), and primary CLL cells were incubated for one to two days in RPMI-1640 and 10% FBS (fetal bovine serum). They were plated in 96-well plates at 100,000 cells/well. Titrated concentrations of the compound to be tested were added to the culture medium. The cells were incubated three days at 37° C., 5% CO2. Viability of the cells was assayed by standard MTT assay. Each drug concentration was done in duplicate. MTT assay: 10 μl of 12 mM 3,[4,5-dimethylthiazol-2-yl]-2,5-diphenyltetrazolium bromide (MTT) (SIGMA) was added to each well. The cells were incubated at 37° C., 5% CO2 for 4 hours. 100 μl of 20% SDS, 0.015M HCl was added to each well and the cells were incubated overnight. The plates were read at absorbance 595 nm.

[3] = target: T1, Cyclooxygenase-2 (human recombinant, expressed in Sf9 cell) (Homo sapiens, UniProt P35354); test: Cox-2 assay: human recombinant cyclooxygenase-2, PGE2 by EIA; format: biochemical; details: human recombinant enzyme; compounds are screened at 10 μM
T1 construct: purchased Cayman 60122; host or cells: Sf9 cell
T1 sequence (P35354 18-604): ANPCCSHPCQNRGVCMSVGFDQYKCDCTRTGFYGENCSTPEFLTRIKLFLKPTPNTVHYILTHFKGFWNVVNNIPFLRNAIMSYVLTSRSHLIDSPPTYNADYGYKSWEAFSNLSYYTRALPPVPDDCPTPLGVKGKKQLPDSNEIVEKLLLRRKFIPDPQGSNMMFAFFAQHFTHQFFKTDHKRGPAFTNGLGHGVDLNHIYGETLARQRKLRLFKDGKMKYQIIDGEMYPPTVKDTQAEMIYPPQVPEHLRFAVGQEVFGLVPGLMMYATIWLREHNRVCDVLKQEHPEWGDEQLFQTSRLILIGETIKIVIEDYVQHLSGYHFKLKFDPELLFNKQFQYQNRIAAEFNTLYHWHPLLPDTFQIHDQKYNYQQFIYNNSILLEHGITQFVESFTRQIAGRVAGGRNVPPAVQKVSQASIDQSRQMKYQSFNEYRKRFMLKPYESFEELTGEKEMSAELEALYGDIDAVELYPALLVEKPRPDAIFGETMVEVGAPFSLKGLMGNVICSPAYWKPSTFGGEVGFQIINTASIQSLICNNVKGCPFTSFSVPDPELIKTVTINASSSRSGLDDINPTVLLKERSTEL
Method: Test compound and/or vehicle is pre-incubated with 0.11 U cyclooxygenase-2, 1 mM reduced glutathione (GSH), 500 μM phenol and 1 μM hematin for 15 minutes at 37° C. The reaction is initiated by addition of 0.3 μM arachidonic acid as substrate in Tris-HCl pH 7.7 and terminated after a 5 minute incubation at 37° C. by addition of 1N HCl. Following centrifugation, substrate conversion to PGE2 is measured by an Amersham EIA kit. Compounds are screened at 10 μM. […] J. Physiol.

[4] = target: T2, COX-1 (Homo sapiens, UniProt P23219); test: Cox-1 assay: PGE2 formation in human platelets; format: cell-based; details: compounds are screened at 10 μM
T2 construct: endogenous in cells; host or cells: human platelets
Method: Test compound and/or vehicle is incubated with human platelets (10^8/ml) containing the phospholipase inhibitor MLnFP (100 μM) for 15 minutes at 37° C. Arachidonic acid (100 μM) is then added for a further 15 minute incubation period. The reaction is stopped by addition of 1 N HCl and neutralized with 1N NaOH. PGE2 levels in the supernatant are determined using the Amersham EIA kit. […]

[5] = tested on: primary CLL cells; test: Cell cytotoxicity, MTT assay, primary CLL cells; format: cell-based; details: 72 h, three days incubation
Method: as §1

[6] = tested on: PBL (peripheral blood leukocytes); test: Cell cytotoxicity, MTT assay, PBL; format: cell-based; details: Leukocyte, 72 h, three days incubation
Method: as §1

T2 sequence (P23219 24-599): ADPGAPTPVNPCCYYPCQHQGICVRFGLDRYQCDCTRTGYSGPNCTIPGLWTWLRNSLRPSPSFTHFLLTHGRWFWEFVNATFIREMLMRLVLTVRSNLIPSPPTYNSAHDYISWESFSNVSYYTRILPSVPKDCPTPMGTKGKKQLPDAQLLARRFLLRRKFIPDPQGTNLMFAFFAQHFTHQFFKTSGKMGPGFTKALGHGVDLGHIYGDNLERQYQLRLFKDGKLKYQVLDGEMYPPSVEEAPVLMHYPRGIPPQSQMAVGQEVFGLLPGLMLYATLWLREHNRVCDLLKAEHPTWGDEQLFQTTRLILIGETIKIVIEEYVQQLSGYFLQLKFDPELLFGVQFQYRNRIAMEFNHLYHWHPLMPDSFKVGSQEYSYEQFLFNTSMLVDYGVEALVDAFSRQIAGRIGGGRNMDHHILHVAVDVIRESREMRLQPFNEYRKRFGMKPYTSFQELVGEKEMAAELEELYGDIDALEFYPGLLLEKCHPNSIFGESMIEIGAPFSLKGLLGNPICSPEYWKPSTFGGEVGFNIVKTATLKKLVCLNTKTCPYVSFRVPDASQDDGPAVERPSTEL

Row | SMILES | IC50 [2] [µM] | other results
1 | O=C(O)CCCc1ccc(N(CCCl)CCCl)cc1 [Chlorambucil, chlorambucil, reference compound] |  | mean tumor volume at termination of the study ([1]; chlorambucil 2 mg/kg/d ip): 864 mm^3; mean tumor volume at termination of the study ([1]; chlorambucil 3 mg/kg/d ip): 766 mm^3; 4× Growth ([1]; time for the tumors to grow to 4× the initial volume at dosing, control 8.9 d): 16 days; 8× Growth ([1]; time for the tumors to grow to 8× the initial volume at dosing, control 14.5 d): 21 days
2 | CCc1cc(-c2ccc(F)cc2)cc2c3c([nH]c12)C(CC)(CCO)OCC3 (stereo not drawn) [Compound 7] | 12 | inhibition at 10 µM [3]: 99%; inhibition at 10 µM [4]: 94%
3 | CCc1cc(-c2ccc3c(c2)OCO3)cc2c3c([nH]c12)C(CC)(CCO)OCC3 (stereo not drawn) [Compound 9] | 10 | inhibition at 10 µM [3]: 90%; inhibition at 10 µM [4]: 88%
4 | CCC1(CCO)OCCc2c1[nH]c1ccccc21 (stereo not drawn) [Compound 22, (1-ETHYL-1,3,4,9-TETRAHYDRO-PYRANO[3,4-b]INDOL-1-YL)-ETHANOL] | 163 | 
5 | CCC1(CCO)OCCc2c1[nH]c1ccc(OC)cc21 (stereo not drawn) [Compound 23, 2-(1-ETHYL-6-METHOXY-1,3,4,9-TETRAHYDRO-PYRANO[3,4-b]INDOL-1-YL)-ETHANOL] | 70 | 
6 | CCC1(CCO)OCCc2c1[nH]c1c(F)cccc21 (stereo not drawn) [Compound 26, 2-(1-ETHYL-8-FLUORO-1,3,4,9-TETRAHYDRO-PYRANO[3,4-b]INDOL-1-YL)-ETHANOL] | 95 | 
7 | CCC1(CCO)OCCc2c1[nH]c1c(Br)cccc21 (stereo not drawn) [Compound 28, 2-(8-BROMO-1-ETHYL-1,3,4,9-TETRAHYDRO-PYRANO[3,4-b]INDOL-1-YL)-ETHANOL] | 25 | 
8 | CCCC1(CCO)OCCc2c1[nH]c1c(CC)cccc21 (stereo not drawn) [Compound 30, 2-(8-ETHYL-1-PROPYL-1,3,4,9-TETRAHYDRO-PYRANO[3,4-b]INDOL-1-YL)-ETHANOL] | 100 | 
9 | CCc1cccc2c3c([nH]c12)C(CCO)(C(C)C)OCC3 (stereo not drawn) [Compound 31, 2-(8-ETHYL-1-ISOPROPYL-1,3,4,9-TETRAHYDRO-PYRANO[3,4-b]INDOL-1-YL)-ETHANOL] | 37 | IC50 [5]: 244 µM
10 | CCc1cccc2c3c([nH]c12)C(CCO)(c1ccccc1)OCC3 (stereo not drawn) [Compound 32, 2-(8-ETHYL-1-PHENYL-1,3,4,9-TETRAHYDRO-PYRANO[3,4-b]INDOL-1-YL)-ETHANOL] | 15 | IC50 [5]: 250 µM
11 | CCc1cccc2c3c([nH]c12)C(CC)(CC(=O)NC)OCC3 (stereo not drawn) [Compound 33] | 132 | IC50 [5]: 98 µM
12 | CCc1cccc2c3c([nH]c12)C1(CCC(CO)CC1)OCC3 (stereo not drawn) [Compound 34, [8′-ETHYL-4′,9′-DIHYDRO-3′H-SPIRO(CYCLOHEXANE-1,1′-PYRANO[3,4-b]INDOL)-4-YL]-METHANOL] | 20 | 
13 | CCC1(CCO)OCCc2c1[nH]c1c(C(F)(F)F)cccc21 (stereo not drawn) [Compound 37, 2-(1-ETHYL-8-TRIFLUOROMETHYL-1,3,4,9-TETRAHYDRO-PYRANO[3,4-b]INDOL-1-YL)-ETHANOL] | 60 | 
14 | CCC1(CCO)OCCc2c1[nH]c1cccc(Cl)c21 (stereo not drawn) [Compound 38, 2-(5-CHLORO-1-ETHYL-1,3,4,9-TETRAHYDRO-PYRANO[3,4-b]INDOL-1-YL)-ETHANOL] | 23 | IC50 [6]: 73 µM
15 | CCC1(CCO)OCCc2c1[nH]c1cccc(F)c21 (stereo not drawn) [Compound 39, 2-(1-ETHYL-5-FLUORO-1,3,4,9-TETRAHYDRO-PYRANO[3,4-b]INDOL-1-YL)-ETHANOL] | 46 | IC50 [6]: 120 µM
16 | CCC1(CCO)OCCc2c1[nH]c1ccc(F)cc21 (stereo not drawn) [Compound 40, 2-(1-ETHYL-6-FLUORO-1,3,4,9-TETRAHYDRO-PYRANO[3,4-b]INDOL-1-YL)-ETHANOL] | 80 | IC50 [5]: 185 µM
17 | CCC1(CCO)OCCc2c1[nH]c1ccc(Cl)cc21 (stereo not drawn) [Compound 41, 2-(6-CHLORO-1-ETHYL-1,3,4,9-TETRAHYDRO-PYRANO[3,4-b]INDOL-1-YL)-ETHANOL] | 51 | IC50 [5]: 110 µM
18 | CCC1(CCO)OCCc2c1[nH]c1cc(F)ccc21 (stereo not drawn) [Compound 43, 2-(1-ETHYL-7-FLUORO-1,3,4,9-TETRAHYDRO-PYRANO[3,4-b]INDOL-1-YL)-ETHANOL] | 77 | 
19 | CCC1(CCO)OCCc2c1[nH]c1cc(Cl)ccc21 (stereo not drawn) [Compound 44, 2-(7-CHLORO-1-ETHYL-1,3,4,9-TETRAHYDRO-PYRANO[3,4-b]INDOL-1-YL)-ETHANOL] | 60 | 
20 | CCC1(CCO)OCCc2c1[nH]c1c(C)cc(C)cc21 (stereo not drawn) [Compound 45] | 8 | IC50 [6]: 90 µM
21 | CCc1cccc2c3c([nH]c12)C(CC)(CC(=O)N(C)C)OCC3 (stereo not drawn) [Compound 48] | 60 | IC50 [5]: 240 µM
22 | CCc1c(Br)ccc2c3c([nH]c12)C(CC)(CCO)OCC3 (stereo not drawn) [Compound 51, 2-(7-BROMO-1,8-DIETHYL-1,3,4,9-TETRAHYDROPYRANO[3,4-b]INDOL-1-YL)ETHANOL] | 10 | 
23 | CCc1cc(-c2cc3ccccc3s2)cc2c3c([nH]c12)C(CC)(CCO)OCC3 (stereo not drawn) [Compound 52] | 9 | inhibition at 10 µM [3]: 97%; inhibition at 10 µM [4]: 78%
24 | CCc1cc(-c2ccc(C)cc2)cc2c3c([nH]c12)C(CC)(CCO)OCC3 (stereo not drawn) [Compound 53] | 11 | inhibition at 10 µM [3]: 96%; inhibition at 10 µM [4]: 90%
25 | CCC1(CCO)OCCc2c1[nH]c1c(C(C)C)cc(Br)cc21 (stereo not drawn) [Compound 54, 2-(6-BROMO-1-ETHYL-1,3,4,9-TETRAHYDRO-8-ISOPROPYLPYRANO[3,4-b]INDOL-1-yl)ETHANOL] | 7 | 
26 | CCOC(=O)CCc1cc(C(C)C)c2[nH]c3c(c2c1)CCOC3(CC)CCO (stereo not drawn) [Compound 55, ETHYL 3-(1-ETHYL-1,3,4,9-TETRAHYDRO-1-(2-HYDROXYETHYL)-8-ISOPROPYLPYRANO[3,4-B]INDOL-6-YL)PROPANOATE] | 18 | 
27 | CCC1(CCO)OCCc2c1[nH]c1c(C(C)C)cc(CCC(=O)O)cc21 (stereo not drawn) [Compound 56, 3-(1-ETHYL-1,3,4,9-TETRAHYDRO-1-(2-HYDROXYETHYL)-8-ISOPROPYLPYRANO[3,4-b]INDOL-6-YL)PROPANOIC ACID] | 235 | 
28 | CCC1(CCO)OCCc2c1[nH]c1c(C(C)C)cc(CCCO)cc21 (stereo not drawn) [Compound 57, 3-(1-ETHYL-1,3,4,9-TETRAHYDRO-1-(2-HYDROXYETHYL)-8-ISOPROPYLPYRANO[3,4-B]INDOL-6-YL)PROPAN-1-OL] | 110 | 

From US7446122B2, “Substituted indole derivatives” (Cephalon, Inc., priority 2003, dated 2008)
